The nature of one series: Tap density. The class given is physicochemical.
Series [1] is described as follows: In-vitro dissolution study in vitreous humor. Particulars: crystals at 10 μm, 37° C., versus micronized TA at 10μ (FIG. 50). The format is physicochemical, Bovine. The protocol:
The rate of dissolution of ACX-TA crystals versus micronized TA in vitreous humor was studied. Bovine eyes were obtained fresh, and the vitreous humor was extracted. The vitreous humor was stored at 5° C., prior to use. 1 ml of crystals of various sizes (1.78 μm, 4.7 μm, 10.18 μm, or 15 μm) were incubated in a shaking incubator at 37° C. Crystals were prepared as described in Table 37 or 38. The crystals of 1.78 μm were prepared using citrate buffer and were of Form B, and the crystals of 4.7 μm, 10.18 μm, and 15 μm were prepared using phosphate buffer and were of Form C.

A short description of series [2]: Thermal analysis (DSC/TGA). The format is physicochemical. The protocol: The table below summarizes the testing conditions and parameters for the simultaneous thermal analysis tests. The samples were (a) Fluticasone Propionate nanocrystals, and (b) Fluticasone Propionate, stock material. The specimens were tested under a heating rate of 10° C./min starting at 30° C. until reaching a final temperature of 350° C. This process was repeated for each specimen. The experiments were performed at EBATCO, LLC, Eden Prairie, Minn.
Thermal properties of the TA particles from Example 9 were investigated using a SHIMADZU® DSC-60 and TGA-50.
Approximately 10 mg of sample was analyzed in an open aluminum pan, and heated at scanning rate of 10° C.·min^−1 from room temperature to 320° C. […] Peak of the heat of melting is at 289.42° C., with ΔHm=83.50 J/g. In comparison, peak of the heat of melting for the nanocrystals produced by the process described in Example 9 is at 275.78° C., with ΔHm=108.45 J/g (FIG. 34).

The conditions of series [3]: cited from earlier work.
Series [4] is described as follows: Solubility of fluticasone propionate in FDA-approved solvents and excipients (RP-HPLC at 239 nm). The format is physicochemical. The protocol: The specific composition of Phase I depends upon the solubility of the drug in this phase. […] The suspension was centrifuged at 10,000 rpm and the supernatant analyzed by RP-HPLC at 239 nm.
For series [5] the following is noted: oral dosing of labeled and unlabeled conventional fluticasone propionate; cited from earlier work.

Here are results for three molecules from patent publication US9815865B2, “Preparations of hydrophobic therapeutic agents, methods of manufacture and use thereof” (Aciex Therapeutics, Inc., priority 2013, dated 2017).

≈ marks a conversion by molar mass, not a printed value. Where two headings read alike, the source gives them in different places.

`CC1(C)O[C@@H]2C[C@H]3[C@@H]4CCC5=CC(=O)C=C[C@]5(C)[C@@]4(F)[C@@H](O)C[C@]3(C)[C@]2(C(=O)CO)O1` [ACX-TA crystals] yielded a tap density in “Tap density” of 0.5677 g/mL. Also, the “rate of dissolution in vitreous humor” value in series [1] is reported as “much slower rate of dissolution than micronized TA”.

`CC1(C)O[C@@H]2C[C@H]3[C@@H]4CCC5=CC(=O)C=C[C@]5(C)[C@@]4(F)[C@@H](O)C[C@]3(C)[C@]2(C(=O)CO)O1` [Stock TA, as purchased]: in series [2], the “Tm (Melting Point)” value was found to be 289.61 °C.

For orientation: solubility means the concentration that dissolves in the medium under given conditions. Turning to `CCC(=O)O[C@]1(C(=O)SCF)[C@H](C)C[C@H]2[C@@H]3C[C@H](F)C4=CC(=O)C=C[C@]4(C)[C@@]3(F)[C@@H](O)C[C@@]21C` [fluticasone propionate, (6α,11β,16α,17α)-6,9,-difluoro-11-hydroxy-16-methyl-3-oxo-17-(1-oxopropoxy) androsta-1,4-diene-17-carbothioic acid, S-fluoromethyl ester], the “solubility (descriptive)” value is given as “freely soluble” in series [3] (in dimethyl sulfoxide and dimethyl-formamide); “slightly soluble” in series [3] (in methanol and 95% ethanol). Further, the solubility in series [4] (Acetone, 25 °C, organic solvent or mixture, thermodynamic from solid, in Acetone, overnight at 25 degrees centigrade, read-out: Solubility) amounted to 63000 µg/mL (≈ 126000 µM); in series [4] (Castor oil, 25 °C, oil or lipid, thermodynamic from solid, in Castor oil, overnight at 25 degrees centigrade, read-out: Solubility), 18 µg/mL (≈ 36 µM); in series [4] (Corn oil, 25 °C, oil or lipid, thermodynamic from solid, in Corn oil, overnight at 25 degrees centigrade, read-out: Solubility), 6.9 µg/mL (≈ 13.8 µM); in series [4] (Ethanol, 25 °C, organic solvent or mixture, thermodynamic from solid, in Ethanol, equilibrated overnight at 25 degrees centigrade, read-out: Solubility) it was 4450 µg/mL (≈ 8880 µM); in series [4] (Glycerin, 25 °C, organic solvent or mixture, thermodynamic from solid, in Glycerin, overnight at 25 degrees centigrade, read-out: Solubility), 144 µg/mL (≈ 288 µM); in series [4] (Methylene Chloride, 25 °C, organic solvent or mixture, thermodynamic from solid, in Methylene Chloride, overnight at 25 degrees centigrade, read-out: Solubility), 9250 µg/mL (≈ 18500 µM). In addition, the solubility was determined as 4210 µg/mL (≈ 8400 µM) in series [4] (PEG 200, 25 °C, organic solvent or mixture, thermodynamic from solid, in PEG 200, overnight at 25 degrees centigrade, read-out: Solubility); 4330 µg/mL (≈ 8650 µM) in series [4] (PEG 400, 25 °C, organic solvent or mixture, thermodynamic from solid, in PEG 400, overnight at 25 degrees centigrade, read-out: Solubility); 426 µg/mL (≈ 851 µM) in series [4] (PHOSAL 50 PG, 25 °C, oil or lipid, thermodynamic from solid, in PHOSAL 50 PG, overnight at 25 degrees centigrade, read-out: Solubility); 2230 µg/mL (≈ 4450 µM) in series [4] (PPG, 25 °C, organic solvent or mixture, thermodynamic from solid, in PPG, overnight at 25 degrees centigrade, read-out: Solubility); 7060 µg/mL (≈ 14100 µM) in series [4] (Polysorbate 20, 25 °C, aqueous with cosolvent or surfactant or cyclodextrin, thermodynamic from solid, in Polysorbate 20, overnight at 25 degrees centigrade, read-out: Solubility); 4910 µg/mL (≈ 9810 µM) in series [4] (Polysorbate 60, 25 °C, aqueous with cosolvent or surfactant or cyclodextrin, thermodynamic from solid, in Polysorbate 60, overnight at 25 degrees centigrade, read-out: Solubility). In addition, the solubility turned out to be 4660 µg/mL (≈ 9300 µM) in series [4] (Polysorbate 80, 25 °C, aqueous with cosolvent or surfactant or cyclodextrin, thermodynamic from solid, in Polysorbate 80, overnight at 25 degrees centigrade, read-out: Solubility); 764 µg/mL (≈ 1530 µM) in series [4] (Propylene glycol, 25 °C, organic solvent or mixture, thermodynamic from solid, in Propylene glycol, overnight at 25 degrees centigrade, read-out: Solubility); 46.9 µg/mL (≈ 93.7 µM) in series [4] (Span 20, 25 °C, aqueous with cosolvent or surfactant or cyclodextrin, thermodynamic from solid, in Span 20, overnight at 25 degrees centigrade, read-out: Solubility); 52.1 µg/mL (≈ 104 µM) in series [4] (Span 80, 25 °C, aqueous with cosolvent or surfactant or cyclodextrin, thermodynamic from solid, in Span 80, overnight at 25 degrees centigrade, read-out: Solubility); 5.3 µg/mL (≈ 10.6 µM) in series [4] (in Dextrose 5%, overnight at 25 degrees centigrade); 660.1 µg/mL (≈ 1320 µM) in series [4] (in PHOSAL 50 PG, overnight at 25 degrees centigrade). Besides, the solubility in series [4] (in PHOSAL 53 MCT, overnight at 25 degrees centigrade) came out at 400 µg/mL (≈ 799 µM); in series [4] (in n-octanol, overnight at 25 degrees centigrade) it was 87.3 µg/mL (≈ 174 µM); in series [4] (oleic acid, 25 °C, oil or lipid, thermodynamic from solid, in oleic acid, overnight at 25 degrees centigrade, read-out: Solubility), 13.6 µg/mL (≈ 27.2 µM); in series [4] (phosphate buffer, 25 °C, pH 7, aqueous buffer, thermodynamic from solid, in Phos buff pH = 7, overnight at 25 degrees centigrade, read-out: Solubility), 9.5 µg/mL (≈ 19 µM); in series [4] (water, 25 °C, water, thermodynamic from solid, in water, overnight at 25 degrees centigrade, read-out: Solubility) it was 0.14 µg/mL (≈ 0.28 µM). Besides, in series [5], the oral systemic bioavailability was less than 1%.
